Experimental data reported in patent US20240336604A1 (THE UNITED STATES OF AMERICA, AS REPRESENTED BY THE …, priority 2021, published 2024).

What was measured:
Assay type in all cases: cell-based
D3 DAR [1] = molecular target: T1, D3 DAR (Homo sapiens, UniProt P35462); test: Go BRET activation assay, D3 DAR; conditions: EC80 DA (30 nM); for Emax: 5 min, read-out: D3 Go BRET Imax
Description: Briefly, HEK293T cells transiently expressing either the D2 DAR or D3 DAR and GαoA-Rluc8, untagged-β1, and mVenus-γ2 were harvested with EBSS, plated in 96-well white plates at 20,000 cells/well in DPBS and incubated at RT for 45 min. […] BRET signal was determined by quantifying and calculating the ratio of the light emitted by mVenus (525 nm) over that emitted by RLuc8 (485 nm) using a PHERAstar FSX Microplate Reader (BMG Labtech).

D3 DAR [2] = molecular target: T1, D3 DAR; test: DiscoverX D3 DAR β-arrestin recruitment assay; set-up: host or cells: CHO; conditions: for IC50: EC80 concentration of DA (30 nM), read-out: D3 DAR IC50; for Emax / D3 DAR Imax: Imax=maximum inhibition, EC80 DA (30 nM)
Text: (§1) A D3 DAR β-arrestin cell line from DiscoverX (Fremont, CA) was used as described in the protocol below (Table 2). A CHO cell line engineered to overexpress the D3 DAR fused with a small 42-amino acid fragment of β-galactosidase called ProLink™ and a fusion protein consisting of β-arrestin and a larger N-terminal deletion mutant of β-galactosidase was used (DiscoverX catalogue number 93-0579C2). When the D3 DAR is activated by dopamine, it stimulates binding of β-arrestin to ProLink-tagged D3 DARs, and the two complementary parts of β-galactosidase form a functional enzyme. When substrate (PathHunter® Detection reagent, DiscoverX 93-0001) is added, β-galactosidase hydrolyzes it and generates a chemiluminescent signal.

D2 DAR = D2 DAR (Homo sapiens, UniProt P14416); test: DiscoverX D2 DAR β-arrestin recruitment assay; set-up: host or cells: CHO; conditions: EC80 concentration of DA (1 μM)
Sequence of D2 DAR (P14416 whole entry, the tested form may be a part): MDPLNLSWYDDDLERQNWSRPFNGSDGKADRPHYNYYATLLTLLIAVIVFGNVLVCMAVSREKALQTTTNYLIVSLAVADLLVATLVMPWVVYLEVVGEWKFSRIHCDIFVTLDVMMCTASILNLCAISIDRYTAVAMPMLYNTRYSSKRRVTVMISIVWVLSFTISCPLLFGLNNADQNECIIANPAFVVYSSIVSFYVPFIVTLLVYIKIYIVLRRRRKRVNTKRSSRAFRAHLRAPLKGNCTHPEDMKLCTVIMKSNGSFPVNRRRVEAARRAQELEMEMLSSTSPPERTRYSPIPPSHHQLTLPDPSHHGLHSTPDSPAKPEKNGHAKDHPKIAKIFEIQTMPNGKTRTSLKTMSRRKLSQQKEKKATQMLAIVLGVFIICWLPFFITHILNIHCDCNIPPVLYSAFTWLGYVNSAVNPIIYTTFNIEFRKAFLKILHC
Text: For a secondary-screen and selectivity assays, DAR PathHunter®-arrestin GPCR cell lines from DiscoverX (Fremont, CA) were used. In the D2 DAR PathHunter®-arrestin GPCR cell line, the D2 DAR is overexpressed and fused with a small 42-amino acid fragment of β-galactosidase called ProLink™ on a CHO cellular background expressing a fusion protein of β-arrestin and a larger N-terminal deletion mutant of β-galactosidase (“enzyme acceptor”). When the D2 DAR is activated by dopamine, it stimulates binding of β-arrestin to the ProLink-tagged DAR and the two complementary parts of β-galactosidase form a functional enzyme. When substrate (PathHunter™ Detection reagent) is added, β-galactosidase hydrolyzes it and generates a chemiluminescent signal.

D3 DAR [3] = molecular target: T1, D3 DAR; test: Functional curve-shift assays using the DiscoverX β-arrestin recruitment assay; set-up: host or cells: CHO; conditions: for IC50: agonist dopamine, read-out: Functional IC50 for decreasing the Emax of dopamine; for mode of antagonism in curve-shift assays: versus agonist (dopamine, pramipexole)
Text: To further assess the mechanism of action of Cmp. […] 1 (FIGS. 4B and 4D). […] Average curves are shown (mean±SEM from at least 3 experiments each performed in triplicate). […] In contrast, increasing concentrations of Cmp.
1. FIG. 6A-C panels show concentration-response curves of dopamine in the absence or presence of increasing concentrations of compound. Cmp. […] 18 (FIG. 6A), Cmp. 5 (FIG. 6B), and Cmp. 17 (FIG. 6C), respectively. Average curves are shown (mean±SEM from at least 3 experiments, each performed in triplicate).
as §1

T1 sequence (P35462 whole entry): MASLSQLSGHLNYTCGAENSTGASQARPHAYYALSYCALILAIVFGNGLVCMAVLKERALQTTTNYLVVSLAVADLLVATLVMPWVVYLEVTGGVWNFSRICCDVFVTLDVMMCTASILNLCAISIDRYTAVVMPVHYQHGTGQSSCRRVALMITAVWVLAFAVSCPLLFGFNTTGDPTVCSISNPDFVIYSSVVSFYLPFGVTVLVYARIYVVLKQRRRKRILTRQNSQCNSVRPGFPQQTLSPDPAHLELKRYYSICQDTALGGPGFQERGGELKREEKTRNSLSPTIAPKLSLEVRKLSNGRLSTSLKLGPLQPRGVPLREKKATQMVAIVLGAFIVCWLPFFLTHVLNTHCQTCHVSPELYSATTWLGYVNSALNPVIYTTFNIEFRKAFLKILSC

Structure (SMILES) | Emax (D3 DAR [1]) [%] | IC50 (D3 DAR [1]) [µM] | IC50 (D3 DAR [2]) [µM] | Emax (D3 DAR [2]) [%] | D2 DAR Imax (D2 DAR) | IC50 (D2 DAR) [µM] | IC50 (D3 DAR [3]) [µM] | mode of antagonism in curve-shift assays (D3 DAR [3]) | D3 DAR Imax (D3 DAR [2])
Cc1[nH]c(C)c(S(=O)(=O)Nc2ccc(C(F)(F)F)c(Cl)c2)c1C(=O)N1CCCC1 [Cmp. 5] | 80 to 100 | 1 to 10 | < 10 | 80 to 100 | NA (“NA” indicates not active) | > 100 | 2.3 | noncompetitive antagonism | 
CCN(C)C(=O)c1c(C)[nH]c(C)c1S(=O)(=O)Nc1ccc(C(F)(F)F)c(Cl)c1 [compound 29] | > 100 | 10 to 50 | 10 to 50 | 80 to 100 | NA (“NA” indicates not active) | > 100 |  |  | 
Cc1ccc(NS(=O)(=O)c2c(C)[nH]c(C)c2C(=O)N2CCCCC2)cc1Cl [compound 11] | > 100 | 10 to 50 | 10 to 50 | 80 to 100 | NA (“NA” indicates not active) | > 100 |  |  | 
Cc1[nH]c(C)c(S(=O)(=O)N2CCC(F)(F)C2)c1C(=O)Nc1ccc(C(F)(F)F)c(Cl)c1 [compound 24] |  | > 50 | 50 to 100 |  | NA (“NA” indicates not active) | > 100 |  |  | Curve Incomplete
Cc1[nH]c(C)c(S(=O)(=O)Nc2ccc(C(F)(F)F)c(Cl)c2)c1C(=O)N(C)C [compound 21, 4-(n-(3-chloro-4-(trifluoromethyl)phenyl)sulfamoyl)-N,N,2,5-tetramethyl-1H-pyrrole-3-carboxamide] | > 100 | 10 to 50 | < 10 | 80 to 100 | NA (“NA” indicates not active) | > 100 |  |  | 
Cc1[nH]c(C)c(S(=O)(=O)Nc2cc(Cl)cc(C(F)(F)F)c2)c1C(=O)N1CCC(F)(F)C1 [compound 40, N-(3-chloro-5-(trifluoromethyl)phenyl)-4-(3,3-difluoropyrrolidine-1-carbonyl)-2,5-dimethyl-1H-pyrrole-3-sulfonamide] | > 100 | 10 to 50 | 10 to 50 | 80 to 100 | NA (“NA” indicates not active) | > 100 |  |  | 
Cc1[nH]c(C)c(S(=O)(=O)Nc2ccc(S(F)(F)(F)(F)F)cc2)c1C(=O)N1CCC(F)(F)C1 [compound 28] | 80 to 100 | 1 to 10 | < 10 | 80 to 100 | NA (“NA” indicates not active) | > 100 |  |  | 
[2H]C1([2H])CCC([2H])([2H])N1C(=O)c1c(C)[nH]c(C)c1S(=O)(=O)Nc1ccc(C(F)(F)F)c(Cl)c1 [compound 23] | > 100 | 1 to 10 | < 10 | 80 to 100 | NA (“NA” indicates not active) | > 100 |  |  | 
Cc1[nH]c(C)c(S(=O)(=O)Nc2ccc(Cl)cc2C(F)(F)F)c1C(=O)N1CCC(F)(F)C1 [compound 42] | > 100 | 10 to 50 | 10 to 50 | 80 to 100 | NA (“NA” indicates not active) | > 100 |  |  | 
Cc1[nH]c(C)c(S(=O)(=O)Nc2ccc(C3CC3)c(Cl)c2)c1C(=O)N1CCC(F)(F)C1 [compound 36, N-(3-chloro-4-cyclopropylphenyl)-4-(3,3-difluoropyrrolidine-1-carbonyl)-2,5-dimethyl-1H-pyrrole-3-sulfonamide] | 80 to 100 | 1 to 10 | 10 to 50 | 80 to 100 | NA (“NA” indicates not active) | > 100 |  |  | 
Cc1[nH]c(C)c(S(=O)(=O)Nc2ccc(F)cc2)c1C(=O)N1CCCC1 [compound 32] | > 100 | 1 to 10 | > 100 |  | NA (“NA” indicates not active) | > 100 |  |  | Curve Incomplete
Cc1[nH]c(C)c(S(=O)(=O)Nc2ccc(C(C)C)cc2)c1C(=O)N1CCCC1 [compound 4] | > 100 | 1 to 10 | 10 to 50 | 80 to 100 | NA (“NA” indicates not active) | > 100 |  |  | 
Cc1[nH]c(C)c(S(=O)(=O)Nc2ccc(C(F)(F)F)c(Cl)c2)c1C(=O)N1CCN(C(=O)OC(C)(C)C)CC1 [compound 19, tert-butyl 4-(4-(N-(3-chloro-4-(trifluoromethyl)phenyl)sulfamoyl)-2,5-dimethyl-1H-pyrrole-3-carbonyl)piperazine-1-carboxylate] | > 100 | 10 to 50 | 50 to 100 | 80 to 100 | NA (“NA” indicates not active) | > 100 |  |  | 
Cc1[nH]c(C)c(S(=O)(=O)Nc2cc(Cl)c(C(F)(F)F)c(Cl)c2)c1C(=O)N1CCC(F)(F)C1 [compound 35, N-(3,5-dichloro-4-(trifluoromethyl)phenyl)-4-(3,3-difluoropyrrolidine-1-carbonyl)-2,5-dimethyl-1H-pyrrole-3-sulfonamide] | 80 to 100 | < 1 | < 10 | 80 to 100 | NA (“NA” indicates not active) | > 100 |  |  | 
CCN1CCCC1CNC(=O)c1cc(S(N)(=O)=O)ccc1OC (centres unmarked) [sulpiride, reference compound] |  |  |  |  |  |  |  | behaves in a competitive manner | 
Cc1[nH]c(C)c(S(=O)(=O)Nc2ccc(C(F)(F)F)c(Br)c2)c1C(=O)N1CCCC1 [Cmp. 18] | 80 to 100 | > 50 | < 10 | 80 to 100 | NA (“NA” indicates not active) | > 100 | 3.6 | noncompetitive antagonism | 
Cc1[nH]c(C)c(S(=O)(=O)Nc2ccc(C(F)(F)F)c(Cl)c2)c1C(=O)N1CCNCC1.Cl [compound 20, N-(3-chloro-4-(trifluoromethyl)phenyl)-2,5-dimethyl-4-(piperazine-1-carbonyl)-1H-pyrrole-3-sulfonamide] |  | > 50 | 50 to 100 |  | NA (“NA” indicates not active) | > 100 |  |  | Curve Incomplete
O=C(c1c(S(=O)(=O)Nc2ccc(C(F)(F)F)c(Cl)c2)c[nH]c1C(F)(F)F)N1CCCC1 [compound 37] |  | > 50 | 10 to 50 | 80 to 100 | NA (“NA” indicates not active) | > 100 |  |  | 
